Experimental data published in US20260297109A1, “COMPOUNDS AS SUMO ACTIVATING ENZYME INHIBITORS” (WIGEN BIOMEDICINE TECHNOLOGY (SHANGHAI) CO., LTD., priority 2022, published 2026).

biological target: T1, SAE (Homo sapiens, UniProt Q9UBT2); assay: SUMO IF: in vitro inhibitory activity assay against SAE in HCT116 cells (SUMO-2/3 immunofluorescence); format: cell-based; details: class symbols, 6 h at 37° C.
T1 construct: endogenous in cells; host or cells: HCT116
T1 sequence (Q9UBT2 1-640): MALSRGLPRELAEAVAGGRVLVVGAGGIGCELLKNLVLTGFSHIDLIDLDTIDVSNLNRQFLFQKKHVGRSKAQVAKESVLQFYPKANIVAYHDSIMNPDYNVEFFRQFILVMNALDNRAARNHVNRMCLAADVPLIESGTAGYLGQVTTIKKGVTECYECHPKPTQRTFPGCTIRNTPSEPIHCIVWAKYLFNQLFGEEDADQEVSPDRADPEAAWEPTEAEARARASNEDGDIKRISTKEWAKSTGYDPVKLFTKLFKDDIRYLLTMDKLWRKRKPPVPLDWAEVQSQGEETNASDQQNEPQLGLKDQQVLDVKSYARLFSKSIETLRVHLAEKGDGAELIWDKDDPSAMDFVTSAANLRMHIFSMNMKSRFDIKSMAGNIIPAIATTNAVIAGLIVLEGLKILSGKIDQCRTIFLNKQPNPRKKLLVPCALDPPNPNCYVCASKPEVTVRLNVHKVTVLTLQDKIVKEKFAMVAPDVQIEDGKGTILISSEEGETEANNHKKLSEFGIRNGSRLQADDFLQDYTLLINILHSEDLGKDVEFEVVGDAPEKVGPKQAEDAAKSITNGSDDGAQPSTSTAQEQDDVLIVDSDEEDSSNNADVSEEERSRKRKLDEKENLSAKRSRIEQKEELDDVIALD
T1 sequence (Q9UBE0 1-346): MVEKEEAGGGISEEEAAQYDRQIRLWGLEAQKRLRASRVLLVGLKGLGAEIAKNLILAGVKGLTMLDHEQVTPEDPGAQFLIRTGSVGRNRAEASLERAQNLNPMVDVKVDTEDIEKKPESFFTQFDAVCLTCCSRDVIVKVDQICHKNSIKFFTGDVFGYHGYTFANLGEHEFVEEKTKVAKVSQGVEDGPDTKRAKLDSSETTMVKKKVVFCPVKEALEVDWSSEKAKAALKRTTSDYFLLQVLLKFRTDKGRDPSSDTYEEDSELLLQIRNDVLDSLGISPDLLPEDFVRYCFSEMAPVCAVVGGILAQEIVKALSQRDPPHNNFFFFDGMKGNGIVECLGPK
In short: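 HCT116 cells were treated with compound for 6 h at 37 °C, then PFA-fixed, Triton-permeabilised and BSA-blocked. They were stained overnight at 4 °C with anti-SUMO-2/3 (18H8) rabbit mAb (1:400), then with FITC anti-rabbit IgG (1:300). Fluorescence versus DMSO gave inhibition rate and IC50.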

First: NS(=O)(=O)OC[C@H]1[C@H](F)[C@@H](Nc2ncncc2C(=O)c2cc3c(s2)CNC[C@@]32NCCc3ccc(Cl)cc32)C[C@@H]1O [Compound 583]
Second: NS(=O)(=O)OC[C@H]1[C@H](F)[C@@H](Nc2ncncc2C(=O)c2cc3c(s2)CNC[C@]32NCCc3ccc(Cl)cc32)C[C@@H]1O [Compound 584]
The IC50 of the first is higher: greater than 200 nM for the first, 50 to 200 nM for the second. The second is the more potent here.

NS(=O)(=O)OC[C@H]1[C@H](F)[C@@H](Nc2ncncc2C(=O)c2nc3c(s2)CCCC32NCCc3ccc(Cl)cc32)C[C@@H]1O (stereo partly drawn) [Compound 585] and NS(=O)(=O)OC[C@H]1[C@H](F)[C@@H](Nc2ncncc2C(=O)c2nc3c(s2)CCC[C@@]32NCCc3ccc(Cl)cc32)C[C@@H]1O [Compound 586] cannot be ordered by IC50: greater than 200 nM for the first, greater than 200 nM for the second.

First: NS(=O)(=O)OC[C@H]1[C@H](F)[C@@H](Nc2ncncc2C(=O)c2nc3c(s2)CCC[C@]32NCCc3ccc(Cl)cc32)C[C@@H]1O [Compound 587]
Second: NS(=O)(=O)OC[C@H]1[C@H](F)[C@@H](Nc2ncncc2C(=O)c2nc3c(s2)COCC32NCCc3ccc(Cl)cc32)C[C@@H]1O (stereo partly drawn) [Compound 588]
The IC50 of the first is lower: 50 to 200 nM for the first, greater than 200 nM for the second.

NS(=O)(=O)OC[C@H]1[C@H](F)[C@@H](Nc2ncncc2C(=O)c2nc3c(s2)COC[C@@]32NCCc3ccc(Cl)cc32)C[C@@H]1O [Compound 589] and NS(=O)(=O)OC[C@H]1[C@H](F)[C@@H](Nc2ncncc2C(=O)c2nc3c(s2)COC[C@]32NCCc3ccc(Cl)cc32)C[C@@H]1O [Compound 590] cannot be ordered by IC50: greater than 200 nM for the first, greater than 200 nM for the second.

NS(=O)(=O)OC[C@H]1[C@H](F)[C@@H](Nc2ncncc2C(=O)c2nc3c(s2)CSCC32NCCc3ccc(Cl)cc32)C[C@@H]1O (stereo partly drawn) [Compound 591] and NS(=O)(=O)OC[C@H]1[C@H](F)[C@@H](Nc2ncncc2C(=O)c2nc3c(s2)CSC[C@@]32NCCc3ccc(Cl)cc32)C[C@@H]1O [Compound 592] cannot be ordered by IC50: greater than 200 nM for the first, greater than 200 nM for the second.

NS(=O)(=O)OC[C@H]1[C@H](F)[C@@H](Nc2ncncc2C(=O)c2nc3c(s2)CSC[C@]32NCCc3ccc(Cl)cc32)C[C@@H]1O [Compound 593] and NS(=O)(=O)OC[C@H]1[C@H](F)[C@@H](Nc2ncncc2C(=O)c2cc3c(s2)CSCC32NCCc3ccc(Cl)nc32)C[C@@H]1O (stereo partly drawn) [Compound 609] fall in the same range of IC50: 50 to 200 nM for the first, 50 to 200 nM for the second.

First: CN1CCc2ccc(Cl)cc2C12CCCc1sc(C(=O)c3cncnc3N[C@H]3C[C@H](O)[C@@H](COS(N)(=O)=O)[C@@H]3F)cc12 (stereo partly drawn) [Compound 594]
Second: CN1CCc2ccc(Cl)cc2[C@]12CCCc1sc(C(=O)c3cncnc3N[C@H]3C[C@H](O)[C@@H](COS(N)(=O)=O)[C@@H]3F)cc12 [Compound 595]
The IC50 of the first is lower: 50 to 200 nM for the first, greater than 200 nM for the second.

First: CN1CCc2ccc(Cl)cc2[C@@]12CCCc1sc(C(=O)c3cncnc3N[C@H]3C[C@H](O)[C@@H](COS(N)(=O)=O)[C@@H]3F)cc12 [Compound 596]
Second: NS(=O)(=O)OC[C@H]1[C@H](F)[C@@H](Nc2ncncc2C(=O)c2cc3c(s2)CCCC32NC(=O)Cc3ccc(Cl)cc32)C[C@@H]1O (stereo partly drawn) [Compound 627]
The IC50 of the first is lower: 50 to 200 nM for the first, greater than 200 nM for the second. The first is the more potent here.

First: NS(=O)(=O)OC[C@H]1[C@H](F)[C@@H](Nc2ncncc2C(=O)c2cc3c(s2)CCCC32NCCc3cnc(Cl)cc32)C[C@@H]1O (stereo partly drawn) [Compound 597]
Second: NS(=O)(=O)OC[C@H]1[C@H](F)[C@@H](Nc2ncncc2C(=O)c2cc3c(s2)CCC[C@@]32NCCc3cnc(Cl)cc32)C[C@@H]1O [Compound 598]
The IC50 of the first is lower: 50 to 200 nM for the first, greater than 200 nM for the second.

NS(=O)(=O)OC[C@H]1[C@H](F)[C@@H](Nc2ncncc2C(=O)c2cc3c(s2)CCC[C@]32NCCc3cnc(Cl)cc32)C[C@@H]1O [Compound 599] and NS(=O)(=O)OC[C@H]1[C@H](F)[C@@H](Nc2ncncc2C(=O)c2cc3c(s2)CCCC32NCCc3ncc(Cl)cc32)C[C@@H]1O (stereo partly drawn) [Compound 603] cannot be ordered by IC50: no more than 50 nM for the first, 50 to 200 nM for the second.

Compared with NS(=O)(=O)OC[C@H]1[C@H](F)[C@@H](Nc2ncncc2C(=O)c2cc3c(s2)CCCC32NCCc3ccc(Cl)nc32)C[C@@H]1O (stereo partly drawn) [Compound 600], NS(=O)(=O)OC[C@H]1[C@H](F)[C@@H](Nc2ncncc2C(=O)c2cc3c(s2)CCC[C@@]32NCCc3ccc(Cl)nc32)C[C@@H]1O [Compound 601] is higher in IC50: no more than 50 nM for the first, greater than 200 nM for the second. The first is the more potent here.

Compared with NS(=O)(=O)OC[C@H]1[C@H](F)[C@@H](Nc2ncncc2C(=O)c2cc3c(s2)CCC[C@]32NCCc3ccc(Cl)nc32)C[C@@H]1O [Compound 602], NS(=O)(=O)OC[C@H]1[C@H](F)[C@@H](Nc2ncncc2C(=O)c2cc3c(s2)CSC[C@@]32NCCc3ccc(Cl)nc32)C[C@@H]1O [Compound 610] is higher in IC50: no more than 50 nM for the first, greater than 200 nM for the second.

Going from NS(=O)(=O)OC[C@H]1[C@H](F)[C@@H](Nc2ncncc2C(=O)c2cc3c(s2)CCC[C@@]32NCCc3ncc(Cl)cc32)C[C@@H]1O [Compound 604] to NS(=O)(=O)OC[C@H]1[C@H](F)[C@@H](Nc2ncncc2C(=O)c2cc3c(s2)CCC[C@]32NCCc3ncc(Cl)cc32)C[C@@H]1O [Compound 605], the IC50 falls from greater than 200 nM to no more than 50 nM. The second is the more potent here.

First: NS(=O)(=O)OC[C@H]1[C@H](F)[C@@H](Nc2ncncc2C(=O)c2cc3c(s2)CSCC32NCCc3cnc(Cl)cc32)C[C@@H]1O (stereo partly drawn) [Compound 606]
Second: NS(=O)(=O)OC[C@H]1[C@H](F)[C@@H](Nc2ncncc2C(=O)c2cc3c(s2)CSC[C@@]32NCCc3cnc(Cl)cc32)C[C@@H]1O [Compound 607]
The IC50 of the first is lower: 50 to 200 nM for the first, greater than 200 nM for the second.

NS(=O)(=O)OC[C@H]1[C@H](F)[C@@H](Nc2ncncc2C(=O)c2cc3c(s2)CSC[C@]32NCCc3cnc(Cl)cc32)C[C@@H]1O [Compound 608] and NS(=O)(=O)OC[C@H]1[C@H](F)[C@@H](Nc2ncncc2C(=O)c2cc3c(s2)CSC[C@]32NCCc3ccc(Cl)nc32)C[C@@H]1O [Compound 611] cannot be ordered by IC50: no more than 50 nM for the first, no more than 50 nM for the second.

First: NS(=O)(=O)OC[C@H]1[C@H](F)[C@@H](Nc2ncncc2C(=O)c2cc3c(s2)CSCC32NCCc3ncc(Cl)cc32)C[C@@H]1O (stereo partly drawn) [Compound 612]
Second: NS(=O)(=O)OC[C@H]1[C@H](F)[C@@H](Nc2ncncc2C(=O)c2cc3c(s2)CSC[C@@]32NCCc3ncc(Cl)cc32)C[C@@H]1O [Compound 613]
The IC50 of the first is lower: 50 to 200 nM for the first, greater than 200 nM for the second.

NS(=O)(=O)OC[C@H]1[C@H](F)[C@@H](Nc2ncncc2C(=O)c2cc3c(s2)CSC[C@]32NCCc3ncc(Cl)cc32)C[C@@H]1O [Compound 614] and NS(=O)(=O)OC[C@H]1[C@H](F)[C@@H](Nc2ncncc2C(=O)c2cc3c(s2)CC2(CC2)CC32NCCc3ccc(Cl)cc32)C[C@@H]1O (stereo partly drawn) [Compound 615] cannot be ordered by IC50: no more than 50 nM for the first, no more than 50 nM for the second.

First: NS(=O)(=O)OC[C@H]1[C@H](F)[C@@H](Nc2ncncc2C(=O)c2cc3c(s2)CCC[C@@]32NCC3(CC3)c3ccc(Cl)cc32)C[C@@H]1O [Compound 616]
Second: NS(=O)(=O)OC[C@H]1[C@H](F)[C@@H](Nc2ncncc2C(=O)c2cc3c(s2)CCC[C@]32NCC3(CC3)c3ccc(Cl)cc32)C[C@@H]1O [Compound 617]
The IC50 of the first is higher: greater than 200 nM for the first, no more than 50 nM for the second. The second is the more potent here.

First: NS(=O)(=O)OC[C@H]1[C@H](F)[C@@H](Nc2ncncc2C(=O)c2cc3c(s2)C(F)=CC32NCCc3ccc(F)cc32)C[C@@H]1O (stereo partly drawn) [Compound 618]
Second: NS(=O)(=O)OC[C@H]1[C@H](F)[C@@H](Nc2ncncc2C(=O)c2cc3c(s2)C(F)=C[C@@]32NCCc3ccc(F)cc32)C[C@@H]1O [Compound 619]
The IC50 of the first is lower: 50 to 200 nM for the first, greater than 200 nM for the second.

NS(=O)(=O)OC[C@H]1[C@H](F)[C@@H](Nc2ncncc2C(=O)c2cc3c(s2)C(F)=C[C@]32NCCc3ccc(F)cc32)C[C@@H]1O [Compound 620] and CC1=CC2(NCCc3ccc(F)cc32)c2cc(C(=O)c3cncnc3N[C@H]3C[C@H](O)[C@@H](COS(N)(=O)=O)[C@@H]3F)sc21 (stereo partly drawn) [Compound 621] fall in the same range of IC50: 50 to 200 nM for the first, 50 to 200 nM for the second.

First: CC1=C[C@@]2(NCCc3ccc(F)cc32)c2cc(C(=O)c3cncnc3N[C@H]3C[C@H](O)[C@@H](COS(N)(=O)=O)[C@@H]3F)sc21 [Compound 622]
Second: CC1=C[C@]2(NCCc3ccc(F)cc32)c2cc(C(=O)c3cncnc3N[C@H]3C[C@H](O)[C@@H](COS(N)(=O)=O)[C@@H]3F)sc21 [Compound 623]
The IC50 of the first is higher: greater than 200 nM for the first, 50 to 200 nM for the second.

First: NS(=O)(=O)OC[C@H]1[C@H](F)[C@@H](Nc2ncncc2C(=O)c2cc3c(s2)C(F)(F)CC32NCCc3ccc(F)cc32)C[C@@H]1O (stereo partly drawn) [Compound 624]
Second: NS(=O)(=O)OC[C@H]1[C@H](F)[C@@H](Nc2ncncc2C(=O)c2cc3c(s2)C(F)(F)C[C@@]32NCCc3ccc(F)cc32)C[C@@H]1O [Compound 625]
The IC50 of the first is lower: 50 to 200 nM for the first, greater than 200 nM for the second. The first is the more potent here.

NS(=O)(=O)OC[C@H]1[C@H](F)[C@@H](Nc2ncncc2C(=O)c2cc3c(s2)C(F)(F)C[C@]32NCCc3ccc(F)cc32)C[C@@H]1O [Compound 626] showed an IC50 of 50 to 200 nM.
